# Test results: patent US11655235B2, “Pyrrolidine and piperidine compounds” (YUHAN CORPORATION, priority 2019, dated 2023)
# Assays:
# Format in all cases: biochemical
# [1] = target: T1, recombinant human DPP9 (Homo sapiens, UniProt Q86TI2); experiment: DPP9 inhibition, fluorogenic substrate H-Gly-Pro-AMC; details: recombinant human DPP9
# T1 construct: purchased R&D Systems
# Procedure, shortened: (§1)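 Inhibitors are titrated in an 8-point series into the enzyme's assay buffer (DMSO no more than 0.5%). Substrate cleavage at 25 °C is followed by fluorescence, excitation 380 nm and emission 460 nm. IC50 values come from a four-variable logistic model.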
# [2] = target: T2, Recombinant human FAP (Homo sapiens, UniProt Q12884); experiment: FAP FRET assay, FGF21-sequence FRET peptide substrate; details: FRET peptide with human FGF21 sequence, 6 μM, 37° C.
# T2 construct: purchased R&D systems
# T2 sequence (Q12884 1-760): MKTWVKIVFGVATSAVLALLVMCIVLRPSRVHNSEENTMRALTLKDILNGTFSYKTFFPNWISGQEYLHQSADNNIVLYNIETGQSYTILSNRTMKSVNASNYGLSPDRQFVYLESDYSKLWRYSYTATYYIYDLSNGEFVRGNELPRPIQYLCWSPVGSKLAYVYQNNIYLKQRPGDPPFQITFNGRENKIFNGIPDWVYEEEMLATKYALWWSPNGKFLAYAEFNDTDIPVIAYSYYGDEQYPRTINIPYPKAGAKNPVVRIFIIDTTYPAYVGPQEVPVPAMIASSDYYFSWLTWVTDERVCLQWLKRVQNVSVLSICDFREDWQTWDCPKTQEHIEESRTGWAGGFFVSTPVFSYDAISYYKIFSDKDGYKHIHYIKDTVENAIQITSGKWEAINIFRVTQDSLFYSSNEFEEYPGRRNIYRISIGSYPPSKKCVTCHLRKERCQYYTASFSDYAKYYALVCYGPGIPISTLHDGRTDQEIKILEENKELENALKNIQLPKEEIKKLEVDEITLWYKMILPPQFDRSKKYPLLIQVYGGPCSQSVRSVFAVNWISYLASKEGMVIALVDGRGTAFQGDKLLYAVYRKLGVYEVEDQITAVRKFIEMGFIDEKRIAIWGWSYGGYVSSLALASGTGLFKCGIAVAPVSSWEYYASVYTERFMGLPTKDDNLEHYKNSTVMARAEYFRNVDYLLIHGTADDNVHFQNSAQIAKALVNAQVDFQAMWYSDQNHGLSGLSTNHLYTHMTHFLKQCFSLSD
# Procedure, shortened: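 FRET peptide bearing human FGF21 sequence (6 μM final) cleaved by 10 ng recombinant human FAP at 37° C in HEPES pH 7.2 buffer with NaCl, BSA and EDTA, DMSO up to 0.1%. Signal-rate decrease versus uninhibited control fitted to a four-variable logistic model for IC50.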
# [3] = target: T3, recombinant human DPP7 (Homo sapiens, UniProt Q9UHL4); experiment: DPP7 inhibition, fluorogenic substrate Lys-Pro-AMC; details: recombinant human DPP7
# T3 construct: purchased R&D Systems
# Procedure, shortened: as §1
# [4] = target: T4, recombinant human PREP (Homo sapiens, UniProt P48147); experiment: PREP inhibition, fluorogenic substrate Z-Gly-Pro-AMC; details: Inhibitory Activity (IC50, nM) PREP, recombinant human PREP
# T4 construct: purchased R&D System
# T4 sequence (P48147 1-710): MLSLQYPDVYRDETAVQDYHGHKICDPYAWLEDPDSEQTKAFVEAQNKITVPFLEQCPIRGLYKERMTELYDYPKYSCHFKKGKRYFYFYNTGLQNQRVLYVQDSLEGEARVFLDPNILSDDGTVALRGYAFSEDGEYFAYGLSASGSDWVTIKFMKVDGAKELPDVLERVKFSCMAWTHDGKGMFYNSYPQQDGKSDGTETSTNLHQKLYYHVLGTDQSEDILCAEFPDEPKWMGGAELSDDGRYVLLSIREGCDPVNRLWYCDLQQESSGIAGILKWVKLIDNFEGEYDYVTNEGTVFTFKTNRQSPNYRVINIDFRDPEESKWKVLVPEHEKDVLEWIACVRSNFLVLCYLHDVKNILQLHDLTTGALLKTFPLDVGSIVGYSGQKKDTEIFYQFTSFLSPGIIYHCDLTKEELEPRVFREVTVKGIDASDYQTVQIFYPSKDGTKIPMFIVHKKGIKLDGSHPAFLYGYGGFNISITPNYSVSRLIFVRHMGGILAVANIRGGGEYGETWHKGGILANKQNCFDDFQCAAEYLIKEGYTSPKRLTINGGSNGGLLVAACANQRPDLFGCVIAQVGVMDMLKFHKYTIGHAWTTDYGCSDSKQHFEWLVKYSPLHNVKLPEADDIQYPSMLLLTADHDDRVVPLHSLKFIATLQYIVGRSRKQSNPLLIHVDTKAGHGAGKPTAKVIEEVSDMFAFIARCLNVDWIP
# Procedure, shortened: as §1
# [5] = target: T5, recombinant human DPP8 (Homo sapiens, UniProt Q6V1X1); experiment: DPP8 inhibition, fluorogenic substrate Z-Ala-Pro-AMC; details: recombinant human DPP8
# T5 construct: purchased PBS Bioscience
# T5 sequence (Q6V1X1 whole entry): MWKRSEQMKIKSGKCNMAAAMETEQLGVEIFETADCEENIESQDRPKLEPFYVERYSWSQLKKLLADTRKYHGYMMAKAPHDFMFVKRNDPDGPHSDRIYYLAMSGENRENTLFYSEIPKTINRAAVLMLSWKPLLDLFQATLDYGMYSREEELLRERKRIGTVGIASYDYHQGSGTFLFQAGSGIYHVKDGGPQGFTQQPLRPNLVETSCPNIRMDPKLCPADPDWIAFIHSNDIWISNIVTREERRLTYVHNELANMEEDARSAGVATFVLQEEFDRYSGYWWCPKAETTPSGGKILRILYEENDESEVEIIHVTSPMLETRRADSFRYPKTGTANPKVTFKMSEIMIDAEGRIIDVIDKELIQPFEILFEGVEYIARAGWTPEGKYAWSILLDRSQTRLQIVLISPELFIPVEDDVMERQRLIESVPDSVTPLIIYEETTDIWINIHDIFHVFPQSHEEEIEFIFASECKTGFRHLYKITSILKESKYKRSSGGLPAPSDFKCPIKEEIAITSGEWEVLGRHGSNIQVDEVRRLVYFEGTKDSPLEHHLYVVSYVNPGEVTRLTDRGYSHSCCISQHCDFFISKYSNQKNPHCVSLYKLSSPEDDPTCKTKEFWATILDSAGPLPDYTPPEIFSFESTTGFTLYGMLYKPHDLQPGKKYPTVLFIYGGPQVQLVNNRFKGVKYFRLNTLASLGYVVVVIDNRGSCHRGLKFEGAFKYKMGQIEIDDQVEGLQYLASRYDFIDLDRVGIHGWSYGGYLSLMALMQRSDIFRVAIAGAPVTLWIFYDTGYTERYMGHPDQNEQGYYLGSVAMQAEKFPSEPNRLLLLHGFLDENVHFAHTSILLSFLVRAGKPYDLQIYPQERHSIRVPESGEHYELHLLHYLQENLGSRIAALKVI
# Procedure, shortened: as §1
# [6] = target: DPP4 (Homo sapiens, UniProt P27487); experiment: DPP4 inhibition, fluorogenic substrate H-Gly-Pro-AMC; set-up: purchased R&D Systems; details: recombinant human DPP4
# DPP4, sequence (P27487 whole entry): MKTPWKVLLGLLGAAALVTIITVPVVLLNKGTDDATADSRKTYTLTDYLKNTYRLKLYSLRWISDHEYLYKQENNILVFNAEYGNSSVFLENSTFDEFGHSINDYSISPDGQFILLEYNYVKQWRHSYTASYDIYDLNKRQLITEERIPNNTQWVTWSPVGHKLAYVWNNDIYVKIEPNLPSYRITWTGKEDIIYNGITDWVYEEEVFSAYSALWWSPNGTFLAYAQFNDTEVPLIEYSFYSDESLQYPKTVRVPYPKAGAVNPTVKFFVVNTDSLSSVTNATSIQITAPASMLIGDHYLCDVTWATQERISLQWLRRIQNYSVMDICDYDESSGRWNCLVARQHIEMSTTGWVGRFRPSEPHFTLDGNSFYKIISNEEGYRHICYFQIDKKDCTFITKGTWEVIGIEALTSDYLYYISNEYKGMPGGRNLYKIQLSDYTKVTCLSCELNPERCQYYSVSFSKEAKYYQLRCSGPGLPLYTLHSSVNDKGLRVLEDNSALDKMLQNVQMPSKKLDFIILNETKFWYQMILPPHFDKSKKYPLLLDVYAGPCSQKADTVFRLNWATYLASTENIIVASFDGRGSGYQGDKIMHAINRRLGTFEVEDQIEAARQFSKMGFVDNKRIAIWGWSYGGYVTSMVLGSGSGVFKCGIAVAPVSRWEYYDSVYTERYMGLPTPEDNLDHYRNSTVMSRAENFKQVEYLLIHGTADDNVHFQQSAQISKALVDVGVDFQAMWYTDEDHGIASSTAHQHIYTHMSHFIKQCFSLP
# [7] = target: T2, Recombinant human FAP; experiment: FAP inhibition, fluorogenic substrate Z-Gly-Pro-AMC; details: recombinant human FAP, substrate Z-Gly-Pro-AMC
# Procedure, shortened: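 Eight-point compound dilutions (≤0.1% DMSO) were incubated at 25° C with 10 ng recombinant human FAP in Tris pH 7.5/1 M NaCl/BSA buffer and Z-Gly-Pro-AMC. Inhibition was taken as % drop in fluorescence rate (380/460 nm) against uninhibited control; IC50 came from a four-parameter logistic fit.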
# T1 sequence (Q86TI2 whole entry): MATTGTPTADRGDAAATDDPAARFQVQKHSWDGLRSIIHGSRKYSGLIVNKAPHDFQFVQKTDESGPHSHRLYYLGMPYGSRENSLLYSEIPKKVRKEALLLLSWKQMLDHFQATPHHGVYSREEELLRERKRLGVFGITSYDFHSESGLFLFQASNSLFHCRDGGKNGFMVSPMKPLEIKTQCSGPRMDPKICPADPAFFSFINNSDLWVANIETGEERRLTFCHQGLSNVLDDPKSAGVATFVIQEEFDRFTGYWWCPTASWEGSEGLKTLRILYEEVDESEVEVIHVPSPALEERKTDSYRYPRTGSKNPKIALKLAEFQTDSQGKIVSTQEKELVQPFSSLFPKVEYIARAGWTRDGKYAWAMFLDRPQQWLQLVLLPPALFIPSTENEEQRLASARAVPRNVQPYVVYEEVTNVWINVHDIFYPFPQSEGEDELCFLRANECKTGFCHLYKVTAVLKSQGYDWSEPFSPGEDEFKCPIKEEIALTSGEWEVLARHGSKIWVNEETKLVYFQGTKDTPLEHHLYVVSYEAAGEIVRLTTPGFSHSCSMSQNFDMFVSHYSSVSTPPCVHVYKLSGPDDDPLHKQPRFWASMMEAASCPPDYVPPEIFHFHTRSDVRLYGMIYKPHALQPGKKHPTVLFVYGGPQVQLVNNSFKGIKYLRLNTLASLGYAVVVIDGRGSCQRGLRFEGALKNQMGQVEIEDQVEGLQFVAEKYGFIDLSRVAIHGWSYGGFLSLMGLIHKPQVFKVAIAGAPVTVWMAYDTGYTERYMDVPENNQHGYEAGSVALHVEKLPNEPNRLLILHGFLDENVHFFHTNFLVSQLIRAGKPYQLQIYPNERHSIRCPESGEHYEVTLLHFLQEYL
IC50 [1] [µM],IC50 [2] [µM],IC50 [3] [µM],IC50 [4] [nM],IC50 [5] [µM],IC50 [6] [µM],IC50 [7] [µM],SMILES
23,–,2.02,1100,9.39,> 10,0.0081,"N#C[C@@H]1C[C@H](F)CN1C(=O)CN1CCC(Oc2nccc3ccccc23)CC1 [Example 419, (2S,4S)-4-fluoro-1-[2-[4-(1-isoquinolyloxy)-1-piperidyl]acetyl]pyrrolidine-2-carbonitrile]"
22.1,–,2.08,1740,8.59,> 10,0.007,"N#C[C@@H]1C[C@H](F)CN1C(=O)CN1CCC(Oc2cncc3ccccc23)CC1 [Example 420, (2S,4S)-4-fluoro-1-[2-[4-(4-isoquinolyloxy)-1-piperidyl]acetyl]pyrrolidine-2-carbonitrile]"
4.16,–,> 100,2610,1.58,7.53,0.0025,"N#C[C@@H]1C[C@H](F)CN1C(=O)CN1CCC(Oc2cccc3cnccc23)CC1 [Example 421, (2S,4S)-4-fluoro-1-[2-[4-(5-isoquinolyloxy)-1-piperidyl]acetyl]pyrrolidine-2-carbonitrile]"
10.3,–,1.22,1410,6.42,> 10,0.0114,"N#C[C@@H]1C[C@H](F)CN1C(=O)CN1CCC(Oc2ccc3cnccc3c2)CC1 [Example 422, (2S,4S)-4-fluoro-1-[2-[4-(6-isoquinolyloxy)-1-piperidyl]acetyl]pyrrolidine-2-carbonitrile]"
9.33,–,2.05,990,3.46,8.99,0.0093,"N#C[C@@H]1C[C@H](F)CN1C(=O)CN1CCC(Oc2ccc3ccncc3c2)CC1 [Example 423, (2S,4S)-4-fluoro-1-[2-[4-(7-isoquinolyloxy)-1-piperidyl]acetyl]pyrrolidine-2-carbonitrile]"

# Second part, the compound before the results:
SMILES,IC50 [1] [µM],IC50 [2] [µM],IC50 [3] [µM],IC50 [4] [nM],IC50 [5] [µM],IC50 [6] [µM],IC50 [7] [µM]
"Cc1cnc2cccc(N(C)[C@H]3CCN(CC(=O)N4C[C@@H](F)C[C@H]4C#N)C3)c2c1 [Example 155, (2S,4S)-4-fluoro-1-[2-[(3S)-3-[methyl-(3-methyl-5-quinolyl)amino]pyrrolidin-1-yl]acetyl]pyrrolidine-2-carbonitrile]",5.72,0.0024,2.9,2540,9.85,1.85,–
"CN(c1cccc2ncc(F)cc12)[C@H]1CCN(CC(=O)N2C[C@@H](F)C[C@H]2C#N)C1 [Example 156, (2S,4S)-4-fluoro-1-(2-((S)-3-((3-fluoroquinolin-5-yl)(methyl)amino)pyrrolidin-1-yl)acetyl)pyrrolidine-2-carbonitrile]",6.79,0.0027,5.06,1020,12,0.736,–
"CN(c1ccc(F)c2ncccc12)[C@H]1CCN(CC(=O)N2C[C@@H](F)C[C@H]2C#N)C1 [Example 158, (2S,4S)-4-fluoro-1-(2-((S)-3-((8-fluoroquinolin-5-yl)(methyl)amino)pyrrolidin-1-yl)acetyl)pyrrolidine-2-carbonitrile]",3.37,0.004,4.9,1720,8.62,2.09,–
"CN(c1ccc(C(F)(F)F)c2ncccc12)[C@H]1CCN(CC(=O)N2C[C@@H](F)C[C@H]2C#N)C1 [Example 159, (2S,4S)-4-fluoro-1-[2-[(3S)-3-[methyl-[8-(trifluoromethyl)-5-quinolyl]amino]pyrrolidin-1-yl]acetyl]pyrrolidine-2-carbonitrile]",3.7,0.0067,0.061,430,7.59,1.86,–
"N#C[C@@H]1C[C@H](F)CN1C(=O)CN1CC[C@@H](Nc2cccc3ncc(F)cc23)C1 [Example 184, (2S,4S)-4-fluoro-1-[2-[(3R)-3-[(3-fluoro-5-quinolyl)amino]pyrrolidin-1-yl]acetyl]pyrrolidine-2-carbonitrile]",5.15,0.0032,2.76,3150,2.43,1.29,–
"N#C[C@@H]1CCCN1C(=O)CN1CC[C@@H](Nc2ccc(F)c3ncccc23)C1 [Example 199, (2S)-1-[2-[(3R)-3-[(8-fluoro-5-quinolyl)amino]pyrrolidin-1-yl]acetyl]pyrrolidine-2-carbonitrile]",10.9,0.0023,8.01,7250,8.23,2.62,–
"N#C[C@@H]1CCCN1C(=O)CN1CC[C@@H](Nc2ccc(OC(F)(F)F)c3ncccc23)C1 [Example 202, (2S)-1-[2-[(3R)-3-[[8-(trifluoromethoxy)-5-quinolyl]amino]pyrrolidin-1-yl]acetyl]pyrrolidine-2-carbonitrile]",13.1,0.0023,6.81,8080,14.2,12.1,–
"N#C[C@@H]1C[C@H](F)CN1C(=O)CN1CC[C@H](Nc2ccc(F)c3ncccc23)C1 [Example 264, (2S,4S)-4-fluoro-1-[2-[(3S)-3-[(8-fluoro-5-quinolyl)amino]pyrrolidin-1-yl]acetyl]pyrrolidine-2-carbonitrile]",–,0.0024,2.27,–,3.6,1.04,0.0013
"CNC(=O)c1ccc(N[C@H]2CCN(CC(=O)N3C[C@@H](F)C[C@H]3C#N)C2)c2cccnc12 [Example 281, N-methyl-5-[[(3S)-1-[2-oxo-2-[(2S,4S)-2-cyano-4-fluoro-pyrrolidin-1-yl]ethyl]pyrrolidin-3-yl]amino]quinoline-8-carboxamide]",2.6,0.0034,1.13,2450,4.45,2.75,–
"CNC(=O)c1ccc(N[C@H]2CCN(CC(=O)N3CCC[C@H]3C#N)C2)c2cccnc12 [Example 286, N-methyl-5-[[(3S)-1-[2-oxo-2-[(2S)-2-cyanopyrrolidin-1-yl]ethyl]pyrrolidin-3-yl]amino]quinoline-8-carboxamide]",32.2,0.0093,3.1,6300,19.8,10.9,–
